Measured values published in US20100298141A1, “SUBSTITUTED PYRIDINE N-OXIDE HERBICIDES” (E. I. DU PONT DE NEMOURS AND COMPANY, priority 2007, published 2010).

Columns and labels:
barnyardgrass [1] = assay: Test B flooded paddy test; format: in vivo, Echinochloa crus-galli; conditions: Flood, 250 g ai/ha, 13 to 15 days; scale 0 to 100, 0 no effect, 100 complete control
Text: (§1) At time of treatment, test pots were flooded to 3 cm above the soil surface, treated by application of test compounds directly to the paddy water, and then maintained at that water depth for the duration of the test. Treated plants and controls were maintained in a greenhouse for 13 to 15 days, after which time all species were compared to controls and visually evaluated. […] A dash (-) response means no test result.

blackgrass = assay: Test D preemergence test; format: in vivo, Alopecurus myosuroides; conditions: scale 0 to 100
Text: (§2) Seeds of plant species selected from annual bluegrass (Poa annua), blackgrass (Alopecurus myosuroides), downy bromegrass (Bromus tectorum), field violet (Viola arvensis), green foxtail (Setaria viridis), Italian ryegrass (Lolium multiflorum), littleseed canarygrass (Phalaris minor), spring wheat (Triticum aestivum), wild oat (Avena fatua), […]), winter barley (Hordeum vulgare), and winter wheat (Triticum aestivum) were planted and treated preemergence with test chemicals formulated in a non-phytotoxic solvent mixture which included a surfactant. […] A dash (-) response means no test result.

green foxtail = assay: Test D preemergence test; format: in vivo, Setaria viridis; conditions: scale 0 to 100
Text: as §2

sugarcane = assay: Test F pre-/postemergence test; format: in vivo, Saccharum officinarum; conditions: for Sugarcane plant response rating: postemergence
Text: Seeds of plant species selected from bermudagrass (Cynodon dactylon), Surinam grass (Brachiaria decumbens), large crabgrass (Digitaria sanguinalis), green foxtail (Setaria viridis), goosegrass (Eleusine indica), johnsongrass (Sorghum halepense), kochia (Kochia scoparia), pitted morningglory (Ipomoea lacunosa), purple nutsedge (Cyperus rotundus), common ragweed (Ambrosia elation), mustard (Brassica nigra), guineagrass (Panicum maximum), […] (Paspalum dilatatum), barnyardgrass (Echinochloa crus-galli), southern sandbur (Cenchrus echinatus), common sowthistle (Sonchus oleraceous), prickly […] spinosa), Italian ryegrass (Lolium multiflorum), common purslane (Portulaca oleracea), broadleaf signalgrass (Brachiaria platyphylla), common groundsel (Senecio vulgaris), common chickweed (Stellaria media), Virginia dayflower (Commelina virginica), annual bluegrass (Poa annua), naked crabgrass (Digitaria nuda), […] cochinchinensis), quackgrass (Elytrigia repens), Canada horseweed (Conyza canadensis), field bindweed (Convolvulus arvensis), […] (Bidens bipinnata), common mallow (Malva sylvestris), Russian thistle (Salsola kali), and sugarcane (Saccharum officinarum) were planted and treated preemergence with test chemicals formulated in a non-phytotoxic solvent mixture which included a surfactant. At a different time, sugarcane was treated with postemergence applications of some of the test chemicals formulated in the same manner. Plants were approximately 3- to 4-leaf stage for the postemergence treatments. Treated plants and controls were maintained in a greenhouse for 14 to 21 days, after which time all species were compared to controls and visually evaluated. […] A dash (-) response means no test result.

barnyardgrass [2] = assay: Test G preemergence test; format: in vivo, Echinochloa crus-galli; conditions: scale 0 to 100
corn = assay: Test G preemergence test; format: in vivo, Zea mays; conditions: scale 0 to 100
field sandbur = assay: Test G preemergence test; format: in vivo, Cenchrus incertus; conditions: scale 0 to 100
lambsquarters = assay: Test G preemergence test; format: in vivo, Chenopodium album; conditions: scale 0 to 100
tall waterhemp = assay: Test G preemergence test; format: in vivo, Amaranthus tuberculatos; conditions: scale 0 to 100
Redstem = assay: Test C flooded paddy test; format: in vivo; conditions: Flood
Text: as §1

Ricefield Bulrush = assay: Test C flooded paddy test; format: in vivo; conditions: Flood
Text: as §1

[3] = 31 g ai/ha, scale 0 to 100 (0 no effect, 100 complete control)
[4] = 62 g ai/ha, scale 0 to 100, 0 no effect, 100 complete control, 13 to 15 days
[5] = 125 g ai/ha, scale 0 to 100, 0 no effect, 100 complete control, 13 to 15 days
[6] = 250 g ai/ha, scale 0 to 100 (0 no effect, 100 complete control)

**Q.** What does the source list for `Cc1cc[n+]([O-])c(S(=O)(=O)Cc2c(C(F)(F)F)nn(C)c2OC(F)F)c1` [Compound 2]?
**A.** Plant response rating, Barnyardgrass (barnyardgrass [1]): 80; Plant response rating, Blackgrass (blackgrass; 31 g ai/ha): 0; Plant response rating, Blackgrass (blackgrass; 62 g ai/ha): 70; Plant response rating, Blackgrass (blackgrass; 125 g ai/ha): 100; Plant response rating, Blackgrass (blackgrass; 250 g ai/ha): 100; Plant response rating, Foxtail, Green (green foxtail; 31 g ai/ha): 0; Plant response rating, Foxtail, Green (green foxtail; 62 g ai/ha): 30; Plant response rating, Foxtail, Green (green foxtail; 125 g ai/ha): 55; Plant response rating, Foxtail, Green (green foxtail; 250 g ai/ha): 65; Plant response rating, Sugarcane (sugarcane; 125 g ai/ha, preemergence, scale 0 to 100): 70; Plant response rating, Sugarcane (sugarcane; 500 g ai/ha, preemergence, scale 0 to 100): 83; Plant response rating, Barnyardgrass (barnyardgrass [2]; 31 g ai/ha): 15; Plant response rating, Barnyardgrass (barnyardgrass [2]; 62 g ai/ha): 100; Plant response rating, Barnyardgrass (barnyardgrass [2]; 125 g ai/ha): 100; Plant response rating, Barnyardgrass (barnyardgrass [2]; 250 g ai/ha): 100; Plant response rating, Corn (corn; 31 g ai/ha): 0; Plant response rating, Corn (corn; 62 g ai/ha): 0; Plant response rating, Corn (corn; 125 g ai/ha): 0; Plant response rating, Corn (corn; 250 g ai/ha): 10; Plant response rating, Sandbur (field sandbur; 31 g ai/ha): 0; Plant response rating, Sandbur (field sandbur; 62 g ai/ha): 0; Plant response rating, Sandbur (field sandbur; 125 g ai/ha): 85; Plant response rating, Sandbur (field sandbur; 250 g ai/ha): 100; Plant response rating, Lambsquarters (lambsquarters; 31 g ai/ha): 0; Plant response rating, Lambsquarters (lambsquarters; 62 g ai/ha): 0; Plant response rating, Lambsquarters (lambsquarters; 125 g ai/ha): 10; Plant response rating, Lambsquarters (lambsquarters; 250 g ai/ha): 15; Plant response rating, Waterhemp (tall waterhemp; 31 g ai/ha): 20; Plant response rating, Waterhemp (tall waterhemp; 62 g ai/ha): 100; Plant response rating, Waterhemp (tall waterhemp; 125 g ai/ha): 100; Plant response rating, Waterhemp (tall waterhemp; 250 g ai/ha): 100; Plant response rating, Redstem (Redstem; [3]): 0; Plant response rating, Redstem (Redstem; [4]): 30; Plant response rating, Redstem (Redstem; [5]): 65; Plant response rating, Redstem (Redstem; [6]): 85; Plant response rating, Ricefield Bulrush (Ricefield Bulrush; [3]): 20; Plant response rating, Ricefield Bulrush (Ricefield Bulrush; [4]): 20; Plant response rating, Ricefield Bulrush (Ricefield Bulrush; [5]): 45; Plant response rating, Ricefield Bulrush (Ricefield Bulrush; [6]): 80

**Q.** For `Cn1nc(C(F)(F)F)c(C[S+]([O-])c2cccc[n+]2[O-])c1OC(F)F` (centres unmarked) [Compound 3], which “Plant response rating, Barnyardgrass” value (barnyardgrass [1]) is on record?
**A.** Its value is 60.

**Q.** And the “Plant response rating, Blackgrass” value (blackgrass; 31 g ai/ha)?
**A.** The value was 0.

**Q.** And the “Plant response rating, Blackgrass” value (blackgrass; 62 g ai/ha)?
**A.** The value was 20.

**Q.** And the “Plant response rating, Blackgrass” value (blackgrass; 125 g ai/ha)?
**A.** The value was 100.

**Q.** What about the “Plant response rating, Blackgrass” value (blackgrass; 250 g ai/ha) of the same molecule?
**A.** Its value is 100.

**Q.** And the “Plant response rating, Foxtail, Green” value (green foxtail; 31 g ai/ha)?
**A.** The value was 0.

**Q.** What about the “Plant response rating, Foxtail, Green” value (green foxtail; 62 g ai/ha) of the same molecule?
**A.** Its value is 35.

**Q.** What about the “Plant response rating, Foxtail, Green” value (green foxtail; 125 g ai/ha) of the same molecule?
**A.** Its value is 60.

**Q.** What about the “Plant response rating, Foxtail, Green” value (green foxtail; 250 g ai/ha) of the same molecule?
**A.** Its value is 100.

**Q.** What about the “Plant response rating, Sugarcane” value (sugarcane; 62 g ai/ha, Preemergence, scale 0 to 100) of the same molecule?
**A.** Its value is 17.

**Q.** What about the “Sugarcane plant response rating” value (sugarcane; 62 g ai/ha, scale 0 to 100) of the same molecule?
**A.** Its value is 32.

**Q.** What about the “Sugarcane plant response rating” value (sugarcane; [6]) of the same molecule?
**A.** Its value is 50.

**Q.** And the “Plant response rating, Sugarcane” value (sugarcane; 250 g ai/ha, preemergence, scale 0 to 100)?
**A.** The value was 50.

**Q.** And the “Plant response rating, Barnyardgrass” value (barnyardgrass [2]; 31 g ai/ha)?
**A.** The value was 0.

**Q.** And the “Plant response rating, Barnyardgrass” value (barnyardgrass [2]; 62 g ai/ha)?
**A.** The value was 70.

**Q.** What about the “Plant response rating, Barnyardgrass” value (barnyardgrass [2]; 125 g ai/ha) of the same molecule?
**A.** Its value is 100.

**Q.** And the “Plant response rating, Barnyardgrass” value (barnyardgrass [2]; 250 g ai/ha)?
**A.** The value was 100.

**Q.** And the “Plant response rating, Corn” value (corn; 31 g ai/ha)?
**A.** The value was 0.

**Q.** What about the “Plant response rating, Corn” value (corn; 62 g ai/ha) of the same molecule?
**A.** Its value is 0.

**Q.** What about the “Plant response rating, Corn” value (corn; 125 g ai/ha) of the same molecule?
**A.** The value was 10.

**Q.** And the “Plant response rating, Corn” value (corn; 250 g ai/ha)?
**A.** The value was 60.

**Q.** What about the “Plant response rating, Sandbur” value (field sandbur; 31 g ai/ha) of the same molecule?
**A.** The value was 0.

**Q.** What about the “Plant response rating, Sandbur” value (field sandbur; 62 g ai/ha) of the same molecule?
**A.** The value was 35.

**Q.** And the “Plant response rating, Sandbur” value (field sandbur; 125 g ai/ha)?
**A.** Its value is 95.

**Q.** And the “Plant response rating, Sandbur” value (field sandbur; 250 g ai/ha)?
**A.** The value was 95.

**Q.** And the “Plant response rating, Lambsquarters” value (lambsquarters; 31 g ai/ha)?
**A.** Its value is 0.

**Q.** What about the “Plant response rating, Lambsquarters” value (lambsquarters; 62 g ai/ha) of the same molecule?
**A.** The value was 0.

**Q.** What about the “Plant response rating, Lambsquarters” value (lambsquarters; 125 g ai/ha) of the same molecule?
**A.** The value was 100.

**Q.** And the “Plant response rating, Lambsquarters” value (lambsquarters; 250 g ai/ha)?
**A.** The value was 100.

**Q.** And the “Plant response rating, Waterhemp” value (tall waterhemp; 31 g ai/ha)?
**A.** Its value is 0.

**Q.** What about the “Plant response rating, Waterhemp” value (tall waterhemp; 62 g ai/ha) of the same molecule?
**A.** Its value is 0.

**Q.** And the “Plant response rating, Waterhemp” value (tall waterhemp; 125 g ai/ha)?
**A.** Its value is 100.

**Q.** What about the “Plant response rating, Waterhemp” value (tall waterhemp; 250 g ai/ha) of the same molecule?
**A.** The value was 100.

**Q.** What about the “Plant response rating, Redstem” value (Redstem; [3]) of the same molecule?
**A.** Its value is 20.

**Q.** What about the “Plant response rating, Redstem” value (Redstem; [4]) of the same molecule?
**A.** The value was 40.

**Q.** And the “Plant response rating, Redstem” value (Redstem; [5])?
**A.** Its value is 45.

**Q.** And the “Plant response rating, Redstem” value (Redstem; [6])?
**A.** The value was 85.

**Q.** And the “Plant response rating, Ricefield Bulrush” value (Ricefield Bulrush; [3])?
**A.** The value was 55.

**Q.** And the “Plant response rating, Ricefield Bulrush” value (Ricefield Bulrush; [4])?
**A.** The value was 55.

**Q.** What about the “Plant response rating, Ricefield Bulrush” value (Ricefield Bulrush; [5]) of the same molecule?
**A.** Its value is 75.

**Q.** And the “Plant response rating, Ricefield Bulrush” value (Ricefield Bulrush; [6])?
**A.** Its value is 80.
